Test results from US20220304993A1, “CONJUGATES OF AN ELECTRON-DONATING NITROGEN OR TERTIARY AMINE […]” (Ascendis Pharma A/S, priority 2019, published 2022).

Test: In vitro release kinetics: cleavage rate of the reversible bond from the conjugates
Type: physicochemical
Details: pH 7.4, 37° C., aqueous buffer (48 mM sodium phosphate, 20% acetonitrile), disappearance of the conjugate by LCMS (UV detection), curve fitting, read-out: t1/2 (pH 7.4) (converted)
Description: The cleavage rate of the reversible bond from conjugates 8a-b was monitored at pH 7.4 and 37° C. in aqueous buffer (pH 7.4, 48 mM sodium phosphate, 20% acetonitrile). Disappearance of the conjugate was determined by LCMS (UV detection) and fitted with curve fitting software to obtain the half-life of the release.

Row | Structure (SMILES) | half-life [h]
1 | CNCCCN(C)C(=O)Oc1ccc(C(C)[N+](C)(C)CCc2ccccc2)cc1 (centres unmarked) [Compound 8a] | 1.3
2 | CNCCCN(C)C(=O)Oc1ccc(C(C)[n+]2cccc3ccccc32)cc1 (centres unmarked) [Compound 8b] | 1.8
